Laboratory results: patent US20260266803A1, “Induced Pluripotent Stem Cell Model of Fibrous Dysplasia/Mccune-Albright Syndrome and Methods of Use” (The Regents of the University of California, priority 2023, published 2026)

System: GNAS^R201H iPSCs
Experiment: cAMP in iPSCs stimulated with the β-adrenergic receptor agonist isoproterenol
Assay type: cell-based, human
Conditions: 10 μM isoproterenol, N=6 in two different iPSC lines
Experimental: FIGS. 3A-3C. […] Representative of n=3. (FIG. 3B) Representative western blot of pluripotent and differentiated (DDX) iPSCs showing increased pCREB and pATF1, consistent with activation of the cAMP pathway. […] N=6 in two different iPSC lines.
Initial screens with a single dose (50 μM) in our GNAS iPSCs identified several compounds with potential as molecular tools ([…].B). We found candidates that inhibited Gsα^R201H but not WT (#46, 47, 43, 2). […] While not desirable for treating FD/MAS or GNAS hyperactivation, these may be useful for treating diseases of GNAS loss of function (e.g., Albright's hereditary osteodystrophy).

CC(C)NCC(O)c1ccc(O)c(O)c1 (stereo not shown) [isoproterenol]
differences in cAMP from baseline: increased differences in cAMP from baseline
